Test results as given in ChEMBL document CHEMBL4609984, “Design, synthesis and biological evaluation of imidazole and oxazole fragments as HIV-1 integrase-LEDGF/p75 disruptors and inhibitors of microbial pathogens” (Bioorg Med Chem, 2020).
In brackets after ≈: the same amount, converted by molar mass. Activity calls are given as the source filed them. No cut-off for these calls is given here.

What was measured:
[1] = target: Human immunodeficiency virus type 1 integrase (Human immunodeficiency virus 1) (UniProt Q7ZJM1); assay: Inhibition of HIV-1 integrase assessed as inhibition of interaction of HIV-1 IN with LEDGF/p75 (unknown origin) at 10 uM preincubated with enzyme for 30 mins followed by further incubation with LEDGF/p75 for 1 hr by Alphascreen assay relative to control
MT4 = assay: Cytotoxicity against human MT4 cells assessed as reduction in cell viability at 10 uM incubated for 5 days by MTS assay; type: cell-based; conditions: mt4, 120 h
Bacillus cereus = assay: Antibacterial activity against Bacillus cereus ATCC 11779 assessed as reduction in bacterial growth incubated for 24 hrs by INT dye based assay; type: functional; conditions: ATCC 11779, 24 h
Escherichia coli = assay: Antibacterial activity against Escherichia coli ATCC 8739 assessed as reduction in bacterial growth incubated for 24 hrs by INT dye based assay; type: functional; conditions: ATCC 8739, 24 h
Pseudomonas aeruginosa = assay: Antibacterial activity against Pseudomonas aeruginosa ATCC 27858 assessed as reduction in bacterial growth incubated for 24 hrs by INT dye based assay; type: functional; conditions: ATCC 27858, 24 h
Staphylococcus aureus = assay: Antibacterial activity against Staphylococcus aureus ATCC 25923 assessed as reduction in bacterial growth incubated for 24 hrs by INT dye based assay; type: functional; conditions: ATCC 25923, 24 h
Candida tropicalis = assay: Antimicrobial activity against Candida tropicalis ATCC 750 assessed as reduction in fungal growth incubated for 48 hrs by INT dye based assay; type: functional
[2] = system: Human immunodeficiency virus 1; assay: Antiviral activity against HIV-1 NL4-3 infected in human MT4 cells assessed as reduction in p24 gag protein at 10 uM incubated for 5 days by ELISA; type: functional, organism-based
[3] = target: Human immunodeficiency virus type 1 integrase (Human immunodeficiency virus 1) (UniProt Q7ZJM1); assay: Inhibition of HIV-1 integrase assessed as inhibition of interaction of HIV-1 IN with LEDGF/p75 (unknown origin) at 10 uM incubated for 1 hr by Alphascreen TruHits counter assay
[4] = target: Human immunodeficiency virus type 1 integrase (Human immunodeficiency virus 1, UniProt Q7ZJM1); assay: Inhibition of HIV-1 integrase assessed as inhibition of interaction of HIV-1 IN with LEDGF/p75 (unknown origin) preincubated with enzyme for 30 mins followed by further incubation with LEDGF/p75 for 1 hr by Alphascreen assay
[5] = system: Human immunodeficiency virus 1; assay: Antiviral activity against HIV-1 NL4-3 infected in human MT4 cells assessed as reduction in p24 gag protein incubated for 5 days by ELISA; type: functional, organism-based; conditions: Human immunodeficiency virus 1, NL4-3, MT4, 120 h
[6] = Cytotoxicity against human MT4 cells assessed as reduction in cell viability incubated for 5 days by MTS assay; type: cell-based

Sequence of Human immunodeficiency virus type 1 integrase (Q7ZJM1 whole entry): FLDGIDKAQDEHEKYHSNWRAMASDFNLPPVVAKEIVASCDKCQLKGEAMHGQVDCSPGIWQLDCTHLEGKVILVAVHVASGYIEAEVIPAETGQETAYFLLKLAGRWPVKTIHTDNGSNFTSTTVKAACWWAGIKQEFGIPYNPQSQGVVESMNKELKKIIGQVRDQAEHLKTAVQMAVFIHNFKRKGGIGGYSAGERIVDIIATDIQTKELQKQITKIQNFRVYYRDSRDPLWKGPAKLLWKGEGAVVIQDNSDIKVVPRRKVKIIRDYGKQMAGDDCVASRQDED
Sequence of Human immunodeficiency virus type 1 integrase (Human immunodeficiency virus 1) (Q7ZJM1 as listed by the source): as the sequence (Q7ZJM1 whole entry) above

Compound | inhibition [1] | Activity (MT4) | also measured
Cc1ccc(S(=O)(=O)[C@H]2N=CO[C@@H]2c2ccccc2)cc1 (racemic) | 34% | Non-Toxic | –
CCCCn1cncc1-c1ccc2c(c1)OCO2 | 35% | Non-Toxic | MIC (Bacillus cereus): 31.3 µg/mL (≈ 128 µM); MIC (Escherichia coli): > 250 µg/mL; MIC (Pseudomonas aeruginosa): > 250 µg/mL
CC(C)(C)c1ccc(-c2cnco2)cc1 | 35% | Non-Toxic | –
c1ccc(-c2cnco2)cc1 | 31% | Non-Toxic | –
c1ncc(-c2ccc3c(c2)OCO3)o1 | 35% | Non-Toxic | –
Cc1ccc(S(=O)(=O)[C@H]2N=CO[C@@H]2c2ccccc2[N+](=O)[O-])cc1 (racemic) | 38% | Non-Toxic | –
Fc1ccc(-c2cncn2Cc2ccccc2)cc1 | 25% | Non-Toxic | MIC (Bacillus cereus): 125 µg/mL (≈ 495 µM); MIC (Staphylococcus aureus): 62.5 µg/mL (≈ 248 µM); MIC (Escherichia coli): > 250 µg/mL; MIC (Pseudomonas aeruginosa): > 250 µg/mL; MIC (Candida tropicalis; ATCC 750, 48 h): > 250 µg/mL
COc1cccc(-c2cncn2C2CC2)c1 | 40% | Non-Toxic | –
O=[N+]([O-])c1ccc(-c2cnco2)cc1 | 33% | Non-Toxic | –
Fc1ccc(-c2cncn2-c2ccc(Br)cc2)cc1 | 52% | Non-Toxic | Activity [2]: inactive; inhibition [3]: Active; IC50 [4]: 25.1 µM; EC50 [5]: > 10 µM; CC50 at 120 h [6]: 48 µM
CCCCn1cncc1-c1ccc(C(C)(C)C)cc1 | 56% | Non-Toxic | MIC (Bacillus cereus): 31.3 µg/mL (≈ 122 µM); Activity [2]: inactive; inhibition [3]: Active; IC50 [4]: 22.4 µM; MIC (Staphylococcus aureus): 15.6 µg/mL (≈ 60.8 µM); MIC (Escherichia coli): 250 µg/mL (≈ 975 µM); EC50 [5]: > 10 µM; MIC (Pseudomonas aeruginosa): 250 µg/mL (≈ 975 µM); CC50 at 120 h [6]: 23.9 µM; MIC (Candida tropicalis; ATCC 750, 48 h): 31.3 µg/mL (≈ 122 µM)
CCCCn1cncc1-c1ccc2c(c1)OCCO2 | 21% | Non-Toxic | –
c1cc2c(cc1-c1cncn1C1CCCCC1)OCO2 | 40% | Non-Toxic | –
COc1cccc(-c2cnco2)c1 | 33% | Non-Toxic | –
COc1ccc(-c2cncn2Cc2ccccc2)c(OC)c1 | 17% | Non-Toxic | MIC (Bacillus cereus): 125 µg/mL (≈ 425 µM); MIC (Staphylococcus aureus): 62.5 µg/mL (≈ 212 µM); MIC (Escherichia coli): > 250 µg/mL; MIC (Pseudomonas aeruginosa): > 250 µg/mL; MIC (Candida tropicalis; ATCC 750, 48 h): 250 µg/mL (≈ 849 µM)
NYSTATIN | – | – | MIC (Candida tropicalis): 1.25 µg/mL
CCCCn1cncc1-c1ccc([N+](=O)[O-])cc1 | 27% | Non-Toxic | –
Fc1ccc(-c2cnco2)cc1 | 23% | Non-Toxic | –
Clc1ccccc1-c1cnco1 | 33% | Non-Toxic | –
CC(C)(C)c1ccc(-c2cncn2C2CCCCC2)cc1 | 62% | Non-Toxic | MIC (Bacillus cereus): 15.6 µg/mL (≈ 55.2 µM); Activity [2]: inactive; inhibition [3]: Active; IC50 [4]: 14.6 µM; MIC (Staphylococcus aureus): 62.5 µg/mL (≈ 221 µM); MIC (Escherichia coli): > 250 µg/mL; EC50 [5]: > 10 µM; MIC (Pseudomonas aeruginosa): > 250 µg/mL; CC50 at 120 h [6]: 21.8 µM; MIC (Candida tropicalis; ATCC 750, 48 h): 31.3 µg/mL (≈ 111 µM)
COc1ccc(-c2cncn2C2CC2)c(OC)c1 | 28% | Non-Toxic | –

Compound | inhibition [1] | Activity (MT4) | also measured
CCCCn1cncc1-c1cccc(OC)c1 | 51% | Non-Toxic | MIC (Bacillus cereus): 62.5 µg/mL (≈ 271 µM); Activity [2]: inactive; inhibition [3]: Active; IC50 [4]: 30.5 µM; MIC (Staphylococcus aureus): > 250 µg/mL; MIC (Escherichia coli): 125 µg/mL (≈ 543 µM); EC50 [5]: > 10 µM; MIC (Pseudomonas aeruginosa): > 250 µg/mL; CC50 at 120 h [6]: 29.6 µM; MIC (Candida tropicalis; ATCC 750, 48 h): 62.5 µg/mL (≈ 271 µM)
CCCCn1cncc1-c1ccc(OC)cc1OC | 26% | Non-Toxic | –
COc1ccc(-c2cnco2)c(OC)c1 | 42% | Non-Toxic | –
Fc1ccc(-c2cncn2C2CCCCC2)cc1 | 45% | Non-Toxic | –
O=[N+]([O-])c1ccc(-c2cncn2C2CCCCC2)cc1 | – | Non-Toxic | –
c1ccc(Cn2cncc2-c2ccc3c(c2)OCO3)cc1 | 43% | Non-Toxic | –
O=[N+]([O-])c1ccccc1-c1cncn1C1CCCCC1 | – | Non-Toxic | –
O=C(O)c1cn(C2CC2)c2cc(N3CCNCC3)c(F)cc2c1=O [CIPROFLOXACIN] | – | – | MIC (Bacillus cereus): 0.156 µg/mL (≈ 0.471 µM); MIC (Staphylococcus aureus): 0.156 µg/mL (≈ 0.471 µM); MIC (Escherichia coli): 0.313 µg/mL (≈ 0.945 µM); MIC (Pseudomonas aeruginosa): 0.313 µg/mL (≈ 0.945 µM)
CCCCn1cncc1-c1ccccc1Cl | 37% | Non-Toxic | –
Cc1ccc(S(=O)(=O)[C@H]2N=CO[C@@H]2c2ccc3c(c2)OCO3)cc1 (racemic) | 33% | Non-Toxic | –
Brc1ccc(-n2cncc2-c2ccc3c(c2)OCO3)cc1 | 48% | Non-Toxic | –
COc1ccc(-c2cncn2C2CCCCC2)c(OC)c1 | 40% | Non-Toxic | MIC (Bacillus cereus): 250 µg/mL (≈ 873 µM); MIC (Staphylococcus aureus): 62.5 µg/mL (≈ 218 µM); MIC (Escherichia coli): > 250 µg/mL; MIC (Pseudomonas aeruginosa): > 250 µg/mL; MIC (Candida tropicalis; ATCC 750, 48 h): 125 µg/mL (≈ 436 µM)
COc1cccc(-c2cncn2Cc2ccccc2)c1 | 21% | Non-Toxic | –
Clc1ccccc1-c1cncn1C1CCCCC1 | 31% | Non-Toxic | –
Fc1ccc(-c2cncn2C2CC2)cc1 | 31% | Non-Toxic | –
COc1ccc(-c2cncn2-c2ccc(Br)cc2)c(OC)c1 | 52% | Non-Toxic | Activity [2]: inactive; inhibition [3]: Active; IC50 [4]: 7 µM; EC50 [5]: > 10 µM; CC50 at 120 h [6]: 55.5 µM
O=[N+]([O-])c1ccccc1-c1cnco1 | 30% | Non-Toxic | –
CCCCn1cncc1-c1ccccc1[N+](=O)[O-] | 30% | Non-Toxic | –
COc1cccc(-c2cncn2C2CCCCC2)c1 | 55% | Non-Toxic | MIC (Bacillus cereus): 62.5 µg/mL (≈ 244 µM); Activity [2]: inactive; inhibition [3]: Active; IC50 [4]: 21.9 µM; MIC (Staphylococcus aureus): 62.5 µg/mL (≈ 244 µM); MIC (Escherichia coli): > 250 µg/mL; EC50 [5]: > 10 µM; MIC (Pseudomonas aeruginosa): > 250 µg/mL; CC50 at 120 h [6]: 27.7 µM; MIC (Candida tropicalis; ATCC 750, 48 h): 62.5 µg/mL (≈ 244 µM)
CCCCn1cncc1-c1ccc(F)cc1 | 30% | Non-Toxic | –
